Experimental data from patent publication US20250143297A1, “Arthropod Control Compositions” (FIRMENICH SA, priority 2022, published 2025).

What was measured:
[1] = test system: Aedes aegypti; assay: Warm Body assay, repellence of mosquito landing on treated warm body; type: in vivo; settings: for reduction of the number of mosquito landing: since the dose of 0.0016%
[2] = test system: Anopheles gambiae; assay: as above; type: in vivo
Procedure: Anopheles gambiae is also a model organism as it is anthropophilic and transmits malaria.
The controlling effect according to the present invention was assessed using an adapted Warm Body assay as defined in Kröber T, Kessler S, Frei J, Bourquin M, Guerin PM. 2010. J Am Mosq Control Assoc. 26:381-386. In this in-vitro assay the number of mosquito landing on a warm body, simulating an attractive host treated with the tested stimuli, was measured in order to assess the repellence effect.
On the sandblasted glass Petri dish covering the warm body (28.3 cm^2), 100 μL of the compounds diluted at different concentrations in ethanol was applied. The number of mosquito landing on the warm body was counted for each stimulus and pure ethanol (solvent) as control.

[3] = test system: Ixodes ricinus; assay: Warm Plate Assay, tick repellence
[4] = test system: Aedes aegypti; assay: Arm-in-cage test on human volunteers; type: in vivo; settings: arm treated with 20%, three human volunteers
Procedure: The controlling effect, repellence & spatial repellence, according to the present invention is also determined according to an arm in the box method adapted from the WHO Guidelines for efficacy repellents testing of mosquito for human skin (WHO/CDS/NTD/WHOPES/2009.4). The readiness of 100 hungry female mosquitoes A. aegypti to a test substance is assessed by comparing the results of an untreated arm to a treated in when inserted into the cage (40×40×40 cm) for 30 seconds (negative control) three times. Further information is provided in the accompanying examples.
Arm-In-Cage Test is the Large-Scale Test Used to Assess on Human Volunteer the Repellent Efficacy on Mosquitoes.
The Arm in the box method was adapted from the WHO Guidelines for efficacy testing of mosquito repellents for human skin (WHO/CDS/NTD/WHOPES/2009.4). The readiness of 100 hungry female mosquitoes A. aegypti to probe is assessed by inserting an untreated arm into the cage (40×40×40 cm) for 30 seconds (negative control) three times (once at the beginning, once at the fourth hour and once at the eighth hour), to determine probing activity. Then, the product is applied onto the skin of the forearm of a human volunteer (1 mL per 600 cm^2) and after 5 minutes, this arm is inserted into the cage and exposed for 3 minutes. The assay take place in temperature (27±2° C.) and humidity (80±10% RH) regulated room on three different volunteers.

CC(C)(C)c1ccc(CCC=O)cc1 [compound 294, 3-(4-tert-butylphenyl)propanal]
Percentage of repellence of mosquitoes Aedes aegypti landing on the warm body ([1]; 0.016 mg/mL): 57% | Percentage of repellence of mosquitoes Aedes aegypti landing on the warm body ([1]; 0.4 mg/mL): 54% | Percentage of repellence of mosquitoes Aedes aegypti landing on the warm body ([1]; 10 mg/mL): 96% | reduction of the number of mosquito landing [1]: by half | Percentage of repellence of mosquitoes Anopheles gambiae landing on the warm body ([2]; 0.178 mg/mL): 42% | Percentage of repellence of mosquitoes Anopheles gambiae landing on the warm body ([2]; 0.267 mg/mL): 14% | Percentage of repellence of mosquitoes Anopheles gambiae landing on the warm body ([2]; 0.4 mg/mL): 55% | Percentage of repellence of mosquitoes Anopheles gambiae landing on the warm body ([2]; 4.47 mg/mL): 96% | Percentage of repellence of mosquitoes Anopheles gambiae landing on the warm body ([2]; 10 mg/mL): 96%

CC(C)(O)Cc1ccc(CCC=O)cc1 [compound 867, 3-[4-(2-hydroxy-2-methylpropyl)phenyl]propanal]
Percentage of repellence of mosquitoes Aedes aegypti landing on the warm body ([1]; 0.016 mg/mL): 13% | Percentage of repellence of mosquitoes Aedes aegypti landing on the warm body ([1]; 0.4 mg/mL): 27% | Percentage of repellence of mosquitoes Aedes aegypti landing on the warm body ([1]; 10 mg/mL): 81%

COC(C)(C)c1ccc(CCC=O)cc1 [compound 681, 3-[4-(2-methoxy-2-propanyl)phenyl]propanal]
Percentage of repellence of mosquitoes Aedes aegypti landing on the warm body ([1]; 0.0032 mg/mL): 0% | Percentage of repellence of mosquitoes Aedes aegypti landing on the warm body ([1]; 0.016 mg/mL): 0% | Percentage of repellence of mosquitoes Aedes aegypti landing on the warm body ([1]; 0.08 mg/mL): 31% | Percentage of repellence of mosquitoes Aedes aegypti landing on the warm body ([1]; 0.4 mg/mL): 49% | Percentage of repellence of mosquitoes Aedes aegypti landing on the warm body ([1]; 2 mg/mL): 89% | Percentage of repellence of mosquitoes Aedes aegypti landing on the warm body ([1]; 10 mg/mL): 92% | Percentage of repellence of ticks Ixodes ricinus on the warm plate ([3]; 0.08 mg/mL): 0.0% | Percentage of repellence of ticks Ixodes ricinus on the warm plate ([3]; 0.4 mg/mL): 13.3% | Percentage of repellence of ticks Ixodes ricinus on the warm plate ([3]; 2 mg/mL): 92.3% | Percentage of repellence of ticks Ixodes ricinus on the warm plate ([3]; 10 mg/mL): 92.0% | repellence of ticks Ixodes ricinus ([3]; 0.2% of stimulus applied): above 90% | repellence of ticks Ixodes ricinus ([3]; 1% of stimulus applied): above 90%

COC(C)(C)c1ccc(CCC=O)c(C)c1 [compound 875, 3-[4-(2-methoxy-2-propanyl)-2-methylphenyl]propanal]
Percentage of repellence of mosquitoes Aedes aegypti landing on the warm body ([1]; 0.0032 mg/mL): 39% | Percentage of repellence of mosquitoes Aedes aegypti landing on the warm body ([1]; 0.016 mg/mL): 60% | Percentage of repellence of mosquitoes Aedes aegypti landing on the warm body ([1]; 0.08 mg/mL): 24% | Percentage of repellence of mosquitoes Aedes aegypti landing on the warm body ([1]; 0.4 mg/mL): 81% | Percentage of repellence of mosquitoes Aedes aegypti landing on the warm body ([1]; 2 mg/mL): 81% | Percentage of repellence of mosquitoes Aedes aegypti landing on the warm body ([1]; 10 mg/mL): 96% | reduction of the number of mosquito landing [1]: by half | Percentage of repellence of mosquitoes Anopheles gambiae landing on the warm body ([2]; 0.178 mg/mL): 69% | Percentage of repellence of mosquitoes Anopheles gambiae landing on the warm body ([2]; 0.267 mg/mL): 66% | Percentage of repellence of mosquitoes Anopheles gambiae landing on the warm body ([2]; 0.4 mg/mL): 93% | Percentage of repellence of mosquitoes Anopheles gambiae landing on the warm body ([2]; 4.47 mg/mL): 97% | Percentage of repellence of mosquitoes Anopheles gambiae landing on the warm body ([2]; 10 mg/mL): 100% | mosquitoes repelled ([2]; lowest concentration tested, 0.0178%): > 60%

COc1ccc(CC(C)C=O)cc1 (stereo not shown) [compound 251, 3-(4-methoxyphenyl)-2-methylpropanal]
percentage of repellence compared to untreated arm (mean ± SD) ([4]; 5 min post-application): 100% ± | percentage of repellence compared to untreated arm (mean ± SD) ([4]; 1 h post-application): 99.84% ± | percentage of repellence compared to untreated arm (mean ± SD) ([4]; 2 h post-application): 98.82% ± | percentage of repellence compared to untreated arm (mean ± SD) ([4]; 3 h post-application): 95.59% ± | percentage of repellence compared to untreated arm (mean ± SD) ([4]; 4 h post-application): 87.3% ± | percentage of repellence compared to untreated arm (mean ± SD) ([4]; 5 h post-application): 81.02% ± | percentage of repellence compared to untreated arm (mean ± SD) ([4]; 6 h post-application): 73.75% ± | percentage of repellence compared to untreated arm (mean ± SD) ([4]; 7 h post-application): 65.56% ± | percentage of repellence compared to untreated arm (mean ± SD) ([4]; 8 h post-application): 64.04% ± | Percentage of repellence of mosquitoes Aedes aegypti landing on the warm body ([1]; 0.0032 mg/mL): 0% | Percentage of repellence of mosquitoes Aedes aegypti landing on the warm body ([1]; 0.0071 mg/mL): 0% | Percentage of repellence of mosquitoes Aedes aegypti landing on the warm body ([1]; 0.016 mg/mL): 0% | Percentage of repellence of mosquitoes Aedes aegypti landing on the warm body ([1]; 0.0357 mg/mL): 61% | Percentage of repellence of mosquitoes Aedes aegypti landing on the warm body ([1]; 0.053 mg/mL): 54% | Percentage of repellence of mosquitoes Aedes aegypti landing on the warm body ([1]; 0.08 mg/mL): 40% | Percentage of repellence of mosquitoes Aedes aegypti landing on the warm body ([1]; 0.119 mg/mL): 52% | Percentage of repellence of mosquitoes Aedes aegypti landing on the warm body ([1]; 0.178 mg/mL): 71% | Percentage of repellence of mosquitoes Aedes aegypti landing on the warm body ([1]; 0.267 mg/mL): 97% | Percentage of repellence of mosquitoes Aedes aegypti landing on the warm body ([1]; 0.4 mg/mL): 79% | Percentage of repellence of mosquitoes Aedes aegypti landing on the warm body ([1]; 0.598 mg/mL): 93% | Percentage of repellence of mosquitoes Aedes aegypti landing on the warm body ([1]; 0.89 mg/mL): 99% | Percentage of repellence of mosquitoes Aedes aegypti landing on the warm body ([1]; 2 mg/mL): 96% | Percentage of repellence of mosquitoes Aedes aegypti landing on the warm body ([1]; 4.47 mg/mL): 97% | Percentage of repellence of mosquitoes Aedes aegypti landing on the warm body ([1]; 10 mg/mL): 89% | Percentage of repellence of mosquitoes Anopheles gambiae landing on the warm body ([2]; 4.47 mg/mL): 100% | Percentage of repellence of mosquitoes Anopheles gambiae landing on the warm body ([2]; 10 mg/mL): 96%

CC(C)c1cccc(C(C)CC=O)c1 (stereo not shown) [compound 1389, 3-(3-propan-2-ylphenyl)butanal]
Percentage of repellence of mosquitoes Aedes aegypti landing on the warm body ([1]; 0.0032 mg/mL): 11% | Percentage of repellence of mosquitoes Aedes aegypti landing on the warm body ([1]; 0.016 mg/mL): 0% | Percentage of repellence of mosquitoes Aedes aegypti landing on the warm body ([1]; 0.0357 mg/mL): 8% | Percentage of repellence of mosquitoes Aedes aegypti landing on the warm body ([1]; 0.053 mg/mL): 74% | Percentage of repellence of mosquitoes Aedes aegypti landing on the warm body ([1]; 0.08 mg/mL): 53% | Percentage of repellence of mosquitoes Aedes aegypti landing on the warm body ([1]; 0.178 mg/mL): 30% | Percentage of repellence of mosquitoes Aedes aegypti landing on the warm body ([1]; 0.4 mg/mL): 81% | Percentage of repellence of mosquitoes Aedes aegypti landing on the warm body ([1]; 0.89 mg/mL): 88% | Percentage of repellence of mosquitoes Aedes aegypti landing on the warm body ([1]; 2 mg/mL): 87% | Percentage of repellence of mosquitoes Aedes aegypti landing on the warm body ([1]; 4.47 mg/mL): 84% | Percentage of repellence of mosquitoes Aedes aegypti landing on the warm body ([1]; 10 mg/mL): 90% | Percentage of repellence of mosquitoes Anopheles gambiae landing on the warm body ([2]; 4.47 mg/mL): 58% | Percentage of repellence of mosquitoes Anopheles gambiae landing on the warm body ([2]; 10 mg/mL): 96%

Cc1cc(C(C)(C)C)ccc1CCC=O [compound 859, 3-[2-methyl-4-(2-methyl-2-propanyl)phenyl] propanal]
Percentage of repellence of mosquitoes Aedes aegypti landing on the warm body ([1]; 0.016 mg/mL): 21% | Percentage of repellence of mosquitoes Aedes aegypti landing on the warm body ([1]; 0.4 mg/mL): 65% | Percentage of repellence of mosquitoes Aedes aegypti landing on the warm body ([1]; 10 mg/mL): 98%
